Assay results published in US11998008B2, “Pesticides and methods of controlling pests” (The State of Israel, Ministry of Agriculture & Rural …, priority 2017, dated 2024).

Experiments:
[1] = system: P. digitatum; test: Fungicidal activity assay on PDA in sealed Petri dish (growth inhibition and mortality); assay type: cell-based, Penicillium digitatum; details: Penicillium digitatum, NA + number = still viable in the highest concentration tested (given as >), read-out: M - Mortality, minimal concentration that killed the fungus
Description: In exemplary procedures, the fungicidial activity of the compounds listed in Table 2 were examined by activity assays as follow: Petri dishes, 90 mm in diameter, with air volume of 80 mL, contained 10-12 mL of growth medium comprising potato dextrose agar (PDA) (Acumedia, Lansing, Michigan, USA) amended with tetracycline at 12 μg/mL. Each compound was placed on a disconnected cover from an Eppendorf tube that was located in the middle of the Petri dish and a hyphae-containing plug of each test fungus was added to the culture plate. In exemplary procedures, the tested compounds trans-2-heptenal, trans-2-octenal were tested in comparison with octanal, trans-2-octen-1-ol, methyl trans-2-octenoate, trans-3-octen-2-one and 3-pentenenitrile. In addition, cyclic ketones as 2-cyclopenten-1-one, 2-cyclohexen-1-one and α-tetralone were also examined. Then, the culture plate was sealed with parafilm and incubated at room-temperature for 2 days, after which the growth of the test fungi in those dishes was compared with those in the test compound-free control dishes. At the end of the assay, the viability of each test fungus was evaluated by transferring inoculum plugs to fresh PDA plates and observing the growth that developed within the next 2 days. The test fungi used in this study included but were not limited to Alternaria alternata, Botrytis cinerea, Sclerotinia rolfsii, Penicillium digitatum, Fusarium oxysporum f. sp. radicis-cucumerinum and Rhizoctonia solani.

[2] = system: F. oxysporum f. sp. radicis-cucumerium; test: as above; assay type: cell-based, Fusarium oxysporum f. sp. radicis-cucumerinum; details: Fusarium oxysporum, NA + number = still viable in the highest concentration tested (given as >), read-out: M - Mortality, minimal concentration that killed the fungus
[3] = system: Tomato plants; test: Phytotoxicity on tomato plants in soil, compound on perlite particles; assay type: in vivo; details: one day after treatment
Excerpt: In exemplary procedures, the phytotixicity of trans-2-octenal and 2-cyclopenten-1-one was examined in triplicates for each concentration: 250, 1,000, 4,000, and 20,000 ppm compared to control.

[4] = system: Fusarium oxysporum f sp. radicis-cucumerinum (FORC); test: Effect on FORC in loam soil in buckets; assay type: in vivo
Description: The activity of trans-2-octenal was examined against phytopathogenic fungi and weeds. The experiment was performed in large buckets (110 L), which bottoms were removed, and therefore the loam in the bucket was continuous with the ground. The soil was inoculated one day prior the application of the compound. Soil inoculation was performed as follows: spores of Fusarium oxysporum f sp. radicis-cucumerinum (FORC) were collected from culture plates and 25 mL of spore suspension at concentration of 9×10^5 was mixed with 10 L of tap water and then poured on the soil of each bucket. […] Half of the buckets were sealed with nylon while the other half remained open. Five days later, soil samples from three different depths (10, 20, and 30 cm) were taken from each bucket for fungal isolation and determination of fungal survival. […] After 3 days, the number of colonies was counted. […] Similar results were obtained at close condition, except at depth 30 cm at concentration of 62.5 ppm.

[5] = system: chlamydospores of Forl; test: Open field experiment in sandy soil; assay type: in vivo, Fusarium oxysporum f sp. radicis-lycopersici; details: emulsion, 54 ppm active compound, 6 days
Description: (§1) In this experiment, an emulsions of trans-2-octenal (25% active compound) such as those described in Example 9 were used. The soil was inoculated with chlamydospores of Forl and sclerotia of S. rolfsii. Five gram of soil, highly inoculated with chlamydospores were wrapped in nylon tights and buried in the field at depths of 10, 30, and 50 cm. Tea bags containing 50 S. rolfsii sclerotia were prepared as described above and buried similarly. After 6 days, trans-2-octenal emulsion, at concentration of 54 ppm (active compound) was applied using the irrigation system. The same conditions were applied to a control plot except that the plot was irrigated with tap water without the compound. The plots were left open during the time of the experiment. After 6 days, the pathogens were removed from the soil and their viability was examined using PDA+tet culture plates. […] As shown in these figures, elimination of both phytopathogenic fungi occurred at the lowest depth of 10 cm.

[6] = system: sclerotia of S. rolfsii; test: Open field experiment in sandy soil; assay type: in vivo, Sclerotium rolfsii; details: emulsion, 54 ppm active compound, 6 days
Description: as §1

[7] = system: Solanum nigrum seeds; test: Viability of weed seeds buried in sandy soil; assay type: in vivo; details: 54 ppm of emulsion, depth 10 cm, 6 days in soil, evaluated 6 days after resowing
Description: The effect of trans-2-octenal was also examined on the weed Solanum nigrum. To this end, 20 seeds of this weed were put in tea bags and buried in sandy soil at the depth of 10 cm. Six (6) days later, 54 ppm of emulsion of trans-2-octenal were applied via the irrigation system. After additional 6 days the seeds were removed from the soil and sown in fresh loam pots. A control experiment was performed as above except that the seeds were irrigated with tap water without the compound. The viability of the seeds was evaluated after 6 days.

[8] = system: seeds of corn, cotton, and peanut; test: Phytotoxicity: seed germination in treated sandy soil in pots; assay type: in vivo; details: soil treated with 54 ppm, nine days
Description: Sandy soil from a plot that was treated with 54 ppm of trans-2-octenal was removed to small pots in which either seeds of corn, cotton, and peanut were sown (FIGS. 16A-16C) or tomato seedlings were planted therein (FIG. 16E).

[9] = system: tomato strain Abigail; test: Field phytotoxicity in loam soil, seedlings planted one day after application; assay type: in vivo; details: emulsion, viable seedlings counted eleven days after planting
[10] = system: lettuce seedling strain Raviv; details: in vivo, 11 days
Description: An experiment in a larger scale was performed in loam soil in which the seedling were planted directly in the treated plot. The soil was treated with 0, 25, 50, 100, 200, 400, 800, and 1,600 ppm of emulsion of trans-2-octenal. The compound was applied using the irrigation system. A day later, tomato seedling strains Ikram and Abigail and lettuce seedling strain Raviv (10 seedlings each) were planted into the treated soil of each concentration. Eleven days later, the number of viable seedlings was counted.

CCCCC/C=C/C=O [trans-2-octenal]
MFC [1]: 12.5 µg/mL
MFC [2]: 6.25 µg/mL
phytotoxicity ([3]; 250 ppm): No phytotoxicity
phytotoxicity ([3]; 1,000 ppm): No phytotoxicity
phytotoxicity ([3]; 4,000 ppm): No phytotoxicity
phytotoxicity ([3]; 20,000 ppm): No phytotoxicity
concentration sufficient to eliminate FORC ([4]; close condition, except at depth 30 cm): 62.5 ppm
concentration sufficient to eliminate FORC ([4]; open conditions, all depths examined (10, 20, 30 cm), 5 days): 62.5 ppm
viability of Forl chlamydospores ([5]; 30 and 50 cm depth): No elimination
viability of Forl chlamydospores ([5]; depth 10 cm, open plot): elimination
viability of S. rolfsii sclerotia ([6]; 30 and 50 cm depth): No elimination
viability of S. rolfsii sclerotia ([6]; depth 10 cm, open plot): elimination
viability of the seeds [7]: eliminated seeds viability
number of seeds germinated in treated versus untreated soil [8]: did not differ significantly
concentration at which significant phytotoxic effect occurred [9]: 400 ppm
concentration at which significant phytotoxic effect occurred [10]: 400 ppm
